The values that follow come from US20210269824A1, “VIRAL VECTOR FOR TREATING AUTOIMMUNE DISEASE AND DIABETES AND CONSTRUCTION METHOD AND APPLICATION THEREOF” (Guangzhou Huazhen Pharmaceutical Co., Ltd., priority 2017, published 2021).

For the test, the system named is peripheral blood CD4 T-cells of patients with type 1 diabetes. Put plainly: Differentiation of peripheral blood CD4 T-cells (Th1, Th2, Th17, Treg) after in vitro treatment, flow cytometry. Type of test: cell-based, human. The following applies: 100 μM, 24 h in vitro, lymphocytes of type 1 diabetes patients. Here is the method: (1) 5 ml peripheral blood was extracted from patients and normal humans separately, diluted twice with PBS of pH 7.2, and then mixed with lymphocyte separation solution Lymphoprep (Axis-Shield, Norway), centrifuged at 3500 rpm for 20 min, then the lymphocytes were taken out and cultured in RPMI1640 medium (purchased from Gibco) to obtain the cultured lymphocytes. The above cultured lymphocytes were treated in vitro with DHA (docosahexaenoic acid) at a final concentration of 100 μM, EPA (eicosapentaenoic acid) at a final concentration of 100 μM, and AA (arachidonic acid) at a final concentration of 100 μM for 24 h, respectively. After treating, changes in intracellular cytokines of CD4 T-cells in the above lymphocytes were detected. (The above DHA, EPA and AA are all purchased from Sigma).
(2) labeling of intracellular cytokines of CD4 T-cells: The lymphocytes (number up to 1×10^5) from patients and normal humans in the above steps were placed to different marked tubes. Labeled fluorescent monoclonal antibodies CD3 (0.1 μg) and CD8 (0.1 μg) were added into each tube. Then 1 ml paraformaldehyde having a concentration of 4% by weight was added into each tube, mixed well and incubated at room temperature (20° C.-30° C.) for 20 min. 1 ml intraprep permeabilization reagent, i.e. 0.5% saponin, was added, incubated at room temperature (20° C.-30° C.) for 30 min, then centrifuged for 5 min at 300 g, 4° C. to obtain a supernatant and a precipitate. The supernatant was removed, and 80 μl 0.5% saponin was added to re-suspend the precipitate to obtain suspensions. The obtained suspensions were labeled respectively with IFN-γ fluorescent monoclonal antibody (0.1 μg), IL-17 fluorescent monoclonal antibody (0.1 μg), IL-4 fluorescent monoclonal antibody (0.1 μg), and Foxp3 fluorescent monoclonal antibody (0.1 μg), and incubated in dark place at 4° C. for 1 h (for the suspension labeled with Foxp3 fluorescent monoclonal antibody, incubation and rupture took 8 h). The labeled cells were washed three times with 0.5% saponin, centrifuged for 5 min at 300 g, 4° C. to obtain a supernatant and a precipitate. The supernatant was removed, and the precipitate was fixed with paraformaldehyde having a mass concentration of 1%. After 24 h, percentages of Th1, Th2, Th17 and Treg cells were analyzed with a flow cytometer Accuri-C6. The antibodies and instruments used in the above steps were all purchased from BD Bioscience.
The CON in FIG. 2 represents a control group, i.e. the lymphocytes of peripheral blood from normal humans not treated with DHA, EPA or AA. The CON in FIG. 3 represents a control group, i.e. the lymphocytes of peripheral blood from patients not treated with DHA, EPA, or AA. In FIG. 2, figures A, B, C, D, and E show percentages of Th1, Th2, Th1/Th2, Th17 and Treg cells in peripheral blood CD4 T-cells of normal subjects, respectively, and figures F, G, H, I and J show percentages of Th1, Th2, Th1/Th2, Th17 and Treg cells in peripheral blood CD4 T-cells of patients, respectively. In FIG. 3, figures A, B, C, and D show percentages of transcription factors T-bet, GATA3, RORγT, and Foxp3 in peripheral blood CD4 T-cells of patients, respectively. As shown in FIGS. 2-3, in peripheral blood CD4 T-cells of patients with type 1 diabetes treated with DHA, EPA and AA respectively, the percentages of Th1 and Th17 cells decreased, and the percentages of Th2 and Treg cells increased, and the ratio of Th1/Th2 and the ratio of T17/Treg were rebalanced.
(Flow cytometry measures light scatter and fluorescence of single cells or particles in a stream.)

`CCCCC/C=C\C/C=C\C/C=C\C/C=C\CCCC(=O)O` [AA, arachidonic acid]: the “ratio of T17/Treg” value was “rebalanced” and the “ratio of Th1/Th2” value is reported as “rebalanced”. For the same molecule, under “vs untreated”, the “percentage of Th1 cells” value is on record as “decreased”, the “percentage of Th2 cells” value was “increased”, the “percentage of Th17 cells” value is recorded as “decreased” and the “percentage of Treg cells” value is given as “increased”.
